Data set [1] has as its system U937 cells. The data set can be described thus: Proliferation test ViaLight HS, U937 cells (Example 8). As to conditions: Homo sapiens, U-937, 72 h, 72 h incubation; range = multiple experiments, otherwise individual experiments. It is filed as cell-based, human. The method, then: 2C Proliferation test ViaLight® HS High Sensitivity Cytotoxicity and Cell Proliferation BioAssay Kit
This protocol allows the determination of the cytostatic and cytotoxic activities of compounds to be tested on mammalian cells in culture and was carried out essentially according to the manufacturer's recommendations.
Cells are suspended in 15 mL of their respective media and are enumerated. They are then diluted in their media in order to obtain: • 2500 cells per 90 μL per well for MRC5 cells • 5000 cells per 90 μL per well for all other cell lines. Cells are then seeded in a 96 well plate, and incubated at least 4 hours in the incubator at 37° C. in 5% CO2.
The molecules to be tested are diluted in DMEM with DMSO in order to obtain the following dilutions: • dilution at 250 μM/1% DMSO • dilution at 50 μM/1% DMSO • dilution at […] • dilution at 2 μM/1% DMSO • dilution at 400 nM/1% DMSO • dilution at 80 nM/1% DMSO For each well comprising 90 μL of cell suspension, 10 μL of a solution of the compound to be tested is added, with the 6 different concentrations. The plate is then incubated during 72 hours. One control plate is contacted with 10 μL of DMEM 1% DMSO, without compound to be tested. 50 μL of lysis buffer (test Vialight® lysis buffer) is added in each well of the control plate and the plate is incubated 10 minutes under hood.
Then, 100 μL of test buffer (test Vialight® test buffer) is added in each well and the control plate is incubated during 2 minutes. The luminescence is read in each well. The mean luminescence for each type of cells is called T0.
After the 72 h incubation, in order to determine the viability, 50 μL of lysis buffer (test Vialight® lysis buffer) is added in each well of the plates and the plates are incubated 10 minutes under hood.
Then, 100 μL of test buffer (test Vialight® test buffer) is added in each well and the plates are incubated during 2 minutes. The luminescence is read in each well. For each type of cell, the mean luminescence in the well not containing the compound is called C72 and the mean luminescence in well containing a given concentration of a compound to be tested is called T72. For each dilution (concentration of compound to be tested), T0 and T72 values are compared.
The graph is plotted for the different concentrations of compound and • GI50 (50% of growth inhibitory) is determined, this is the dose producing 50% of cell growth (intersection at Y=50); • TGI (total growth inhibitory) is determined on the graph, this is the dose producing the total arrest of the cell growth (intersection at Y=0); and • LC50 (50% of lethal concentration) is determined, this is the dose producing the death of 50% of the cells (intersection at Y=−50).
Following the protocol described in Example 2C, different compounds according to the invention have been tested for their cytostatic and cytotoxic activities on mammalian cells in culture (specifically U937 cells).
The GI50 (50% of growth inhibitory) has been determined for all the following compounds, i.e. the dose producing 50% of cell growth inhibition.
Where the GI50 provided is in the form of a range, it means that multiple experiments, whose results fall within the range indicated, were performed. Otherwise, results of individual experiments are provided.

Data set [2] deals with T1, interaction between 6×His-Bcl-xL and GST-BF8 (Homo sapiens, UniProt Q07817).
T1 construct: made in house; host or cells: E. coli
The data set can be described thus: Pull down assay, Bcl-xL/BF8 in vitro interaction. As to conditions: 50 μM, 5% DMSO; Western blot. It is filed as binding. The method, then: FIG. 3: Inhibition of the interaction between Bcl-xL and BF8, a peptide aptamer that targets the hydrophobic groove of BCL-2 family members. […]
C+: 6×His-Bcl-xL captured by GST-BF8, in presence of 5% DMSO. (02): 6×His-Bcl-xL captured by GST-BF8, in presence of 50 μM of compound 02 (in 5% DMSO). (01): 6×His-Bcl-xL captured by GST-BF8, in presence of 50 μM of compound 01 (in 5% DMSO).
A peptide aptamer (dubbed BF8) has been selected against the anti-apoptotic protein Bfl1, member of the BCL-2 family. […] Two lines of evidence indicate that BF8 binds the hydrophobic groove of anti-apoptotic BCL-2-like proteins. First, the amino-acid sequence of its variable region bears similarities with the sequence of the BH3 domains of pro-apoptotic members of the BCL-2 family (such as Bak or Bax), known to bind the anti-apoptotic proteins via this hydrophobic groove. Second, BF8 no longer binds a mutated variant of Bfl-1 that bears an amino-acid substitution within the said hydrophobic groove.
A Bcl-xL/BF8 in vitro interaction assay was developed to examine the capacity of the compounds of the invention to disrupt this interaction by competition with the peptide aptamer. 6×His-Bcl-xL and GST-BF8 recombinant fusion proteins were expressed in E. coli and purified using affinity chromatography. […]

In data set [3] the test system is SCLC tumor. As to conditions: in vivo; cited from earlier work.
Data set [4] relates to small cell lung carcinoma (SCLC) and lymphoid cells. As to conditions: cited from earlier work.
For data set [5] the following is noted: in vivo; cited from earlier work.
Data set [6] concerns melanoma, breast, cervical, prostate, colon tumor cells. As to conditions: cited from earlier work.

This is an account of results in patent US20090203685A1, “ANTI-PROLIFERATIVE COMPOUNDS FROM A 3-ARYL-COUMARINE OR 3-ARYL-QUINOLIN-2-ONE AND USES THEREOF” (EOS (ETHICAL ONCOLOGY SCIENCE) S.P.A., priority 2006, published 2009).

As usually defined, the GI50 is the concentration at which growth is held to half of that of the control.

T1 sequence (Q07817 whole entry): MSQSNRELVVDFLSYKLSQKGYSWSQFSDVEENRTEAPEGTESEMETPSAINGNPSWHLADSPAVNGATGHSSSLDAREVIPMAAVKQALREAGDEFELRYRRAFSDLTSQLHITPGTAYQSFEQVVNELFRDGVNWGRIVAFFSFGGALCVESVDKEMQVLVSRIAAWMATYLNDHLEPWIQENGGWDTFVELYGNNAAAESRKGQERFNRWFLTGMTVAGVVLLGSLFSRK

Take `COc1cc(NC(=S)NC(=O)c2ccccc2)ccc1-c1cc2ccccc2oc1=O` [Compound 02, N-({[3-methoxy-4-(2-oxo-2H-chromen-3-yl)phenyl]amino}carbonothioyl)benzamide]: the GI50 in data set [1] was 600 to 860 nM. For the same molecule, the “Inhibition of the in vitro interaction between 6×His-Bcl-xL and GST-BF8” value in data set [2] was “inhibit”.

For `CN(C)CC[C@H](CSc1ccccc1)Nc1ccc(S(=O)(=O)NC(=O)c2ccc(N3CCN(Cc4ccccc4-c4ccc(Cl)cc4)CC3)cc2)cc1[N+](=O)[O-]` [ABT-737], the “SCLC tumor regression in mouse models” value in data set [3] is on record as “induces SCLC tumor regression”. For the same molecule, the “Apoptosis of SCLC and lymphoid cells” value in data set [4] is on record as “induces apoptosis”.

As to `COC1=CC(c2cc3ccccc3[nH]2)=N/C1=C\c1[nH]c(C)cc1C` [GX15-070], the “MTD (maximal tolerated dose)” value in data set [5] is “approx 16 mg/kg”. The “Growth of melanoma, breast, cervical, prostate, colon tumor cells” value in data set [6] is “inhibit growth”.
